The source of these data is ChEMBL document CHEMBL1201862, “PubChem BioAssay data set” (2004).

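Method: 48-hour compound exposure of cells in 96-well plates, five concentrations, linear interpolation of endpoints. GI50 marks 50% less growth.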 Activity calls are given as the source filed them. Rule as the data show it: active = GI50 up to about 1.1 µM and inactive = higher.

Among the test systems are SF-268; UACC-257; MDA-MB-435; RPMI-8226; NCI-H460; OVCAR-3; HT-29; HCT-15; SK-MEL-5; DU-145; CAKI-1; MCF7; OVCAR-8; NCI-H226; SNB-75; MDA-N; SK-MEL-28; UACC-62; HL-60; SK-OV-3.
Common to all, as to experiment: growth of human tumour cells (NCI), 48 h

Turning to `O=c1oc2ccccc2c(-c2ccc(O)cc2)c1Oc1ccc(Cl)cc1`, the GI50 in the assay on SF-268 was 23.6 µM (inactive); with UACC-257 it was 28.2 µM (inactive); in the assay with MDA-MB-435, 30 µM (inactive); with RPMI-8226 it was 20.7 µM (inactive); with NCI-H460 it was 20.4 µM (inactive); in the assay with OVCAR-3, 14.9 µM (inactive). In addition, the GI50 in the assay on HT-29 is 20.1 µM (inactive); in the assay on HCT-15, 30.1 µM; in the assay on SK-MEL-5 it was 18.3 µM (inactive); in the assay on DU-145 it was 42.7 µM (inactive); with CAKI-1 it was 28.8 µM (inactive); with MCF7, 4.88 µM (inactive). For the same compound, the GI50 was 25.8 µM (inactive) in the assay on OVCAR-8; 20.5 µM (inactive) in the assay with NCI-H226; 18.7 µM (inactive) with SNB-75; 19.5 µM (inactive) with MDA-N; 15.3 µM (inactive) in the assay with SK-MEL-28; 19.9 µM (inactive) with UACC-62.

For `O=C(O)c1nc2ccc(C(F)(F)F)cc2nc1Nc1ccc(Cl)c(Cl)c1`, the GI50 in the assay with SF-268 was 4.46 µM (inactive); in the assay on UACC-257 it was 29.2 µM (inactive); in the assay on MDA-MB-435 it was 5.74 µM (inactive); in the assay on NCI-H460, 7.41 µM (inactive); in the assay on OVCAR-3, 6.37 µM (inactive); with HT-29, 9.16 µM (inactive). Further, the GI50 with HCT-15 is 8.97 µM; in the assay with SK-MEL-5 it was 10.6 µM (inactive); with HL-60, 5.62 µM (inactive); in the assay on DU-145, 9.68 µM (inactive); in the assay on CAKI-1, 15.5 µM (inactive); in the assay with MCF7, 14.3 µM (inactive). In addition, the GI50 in the assay on OVCAR-8 is 4.91 µM (inactive); in the assay on NCI-H226, 10.6 µM (inactive); in the assay with SNB-75 it was 13.2 µM (inactive); in the assay with MDA-N, 6.73 µM (inactive); with SK-MEL-28, 13 µM (inactive); with UACC-62 it was 2.3 µM (inactive).

With `O=Cc1ccc(OCc2cccc(COc3ccc(/C=N\Nc4ccc([N+](=O)[O-])cc4[N+](=O)[O-])cc3)n2)cc1`, the GI50 in the assay on SF-268, in the assay on UACC-257, in the assay with MDA-MB-435, in the assay on RPMI-8226, with NCI-H460 and with OVCAR-3 was > 100 µM (inactive) throughout. The GI50 was > 100 µM (inactive) with HT-29; over 100 µM in the assay on HCT-15; > 100 µM (inactive) in the assay on SK-MEL-5; > 100 µM (inactive) in the assay on HL-60; > 100 µM (inactive) in the assay on DU-145; > 100 µM (inactive) in the assay on CAKI-1. Also, the GI50 in the assay with MCF7 is > 100 µM (inactive); in the assay with OVCAR-8 it was 61 µM (inactive); with NCI-H226, > 100 µM (inactive); in the assay with MDA-N, > 100 µM (inactive); in the assay on SK-MEL-28 it was > 100 µM (inactive); in the assay with UACC-62, > 100 µM (inactive).

Take `O=C(/C=C/c1ccc(O)cc1)c1cc(-c2cc(CCC(=O)c3ccc(O)cc3O)ccc2O)c(O)cc1O`: the GI50 in the assay with SF-268 was 22.4 µM (inactive); in the assay with UACC-257, > 50 µM (inactive); in the assay with MDA-MB-435, 17 µM (inactive); in the assay with RPMI-8226 it was 16.3 µM (inactive); in the assay on NCI-H460, 23.8 µM (inactive); in the assay with OVCAR-3, 14.1 µM (inactive). Moreover, the GI50 with HT-29 is 14.4 µM (inactive); in the assay with HCT-15 it was over 50 µM; in the assay on SK-MEL-5 it was 25.2 µM (inactive); with SK-OV-3 it was 16.9 µM (inactive); in the assay on HL-60 it was 17.9 µM (inactive); in the assay on DU-145, 32.4 µM (inactive). Also, the GI50 was > 50 µM (inactive) in the assay with CAKI-1; 28.1 µM (inactive) with MCF7; 25.5 µM (inactive) in the assay on OVCAR-8; 19.3 µM (inactive) in the assay on SNB-75; 19.1 µM (inactive) with MDA-N; 21.7 µM (inactive) in the assay with SK-MEL-28. Also, the GI50 in the assay on UACC-62 was 22.8 µM (inactive).

Turning to `NNC(=O)C1(NC(=O)c2ccccc2)C(c2ccccc2)C(c2ccccc2)=NN1c1ccccc1` (configuration not stated), the GI50 with SF-268 is 66.7 µM (inactive); in the assay with UACC-257, 43.3 µM (inactive); with MDA-MB-435, 29.2 µM (inactive); in the assay with RPMI-8226, 21.1 µM (inactive); with NCI-H460 it was 43.8 µM (inactive); in the assay on OVCAR-3, 18.1 µM (inactive). For the same compound, the GI50 in the assay on HCT-15 is 18.5 µM; in the assay with SK-MEL-5, 30 µM (inactive); in the assay with SK-OV-3 it was 29.9 µM (inactive); with DU-145, 72.6 µM (inactive); in the assay on CAKI-1, 15.6 µM (inactive); with MCF7 it was 37.9 µM (inactive). Moreover, the GI50 in the assay with OVCAR-8 was 55.5 µM (inactive); in the assay on NCI-H226, > 100 µM (inactive); with SNB-75, 30.2 µM (inactive); in the assay with MDA-N, 24.2 µM (inactive); with SK-MEL-28, 90.4 µM (inactive); in the assay on UACC-62, 23.1 µM (inactive).

Consider `O=c1cc(NNCc2ccccc2)[nH]c(=O)[nH]1`, for which the GI50 in the assay on SF-268, with UACC-257, in the assay on MDA-MB-435, with RPMI-8226, with NCI-H460 and in the assay on OVCAR-3 was > 100 µM (inactive) in each case. Moreover, the GI50 was > 100 µM (inactive) in the assay with HT-29; over 100 µM in the assay on HCT-15; > 100 µM (inactive) in the assay with SK-MEL-5; > 100 µM (inactive) in the assay on HL-60; > 100 µM (inactive) in the assay with DU-145; > 100 µM (inactive) in the assay on CAKI-1. Further, the GI50 in the assay on MCF7, in the assay with OVCAR-8, with NCI-H226, in the assay with MDA-N and with SK-MEL-28 was > 100 µM (inactive) in each case.

In the case of `O=c1ccn([C@@H]2C[C@H]2CO)c(=O)[nH]1`, the GI50 in the assay with SF-268, in the assay with UACC-257, in the assay with MDA-MB-435, with RPMI-8226, in the assay on NCI-H460 and with HT-29 was > 100 µM (inactive) throughout. The GI50 with HCT-15 was over 100 µM; with SK-MEL-5 it was > 100 µM (inactive); with HL-60, > 100 µM (inactive); with DU-145 it was > 100 µM (inactive); with CAKI-1 it was > 100 µM (inactive); in the assay on MCF7, > 100 µM (inactive). Besides, the GI50 in the assay on OVCAR-8, in the assay with NCI-H226, with SNB-75, in the assay on MDA-N, with SK-MEL-28 and in the assay on UACC-62 was > 100 µM (inactive) each time.

On to `COc1cc(-c2ccccc2N)c2cccnc2c1OC`, for which the GI50 with SF-268 is 3.1 µM (inactive); in the assay on UACC-257, 10.1 µM (inactive); in the assay with MDA-MB-435, 8.17 µM (inactive); in the assay with RPMI-8226, 3.4 µM (inactive); in the assay on NCI-H460, 11.1 µM (inactive); in the assay with OVCAR-3 it was 4.38 µM (inactive). Besides, the GI50 is 0.74 µM (active) with HT-29; 3.58 µM in the assay with HCT-15; 13 µM (inactive) with SK-MEL-5; 9.57 µM (inactive) in the assay on SK-OV-3; 3.98 µM (inactive) in the assay on HL-60; 2.89 µM (inactive) in the assay on DU-145. The GI50 is 2.63 µM (inactive) in the assay on CAKI-1; 3.84 µM (inactive) in the assay on MCF7; 11.6 µM (inactive) with NCI-H226; 6.47 µM (inactive) in the assay with MDA-N; 17.9 µM (inactive) in the assay with SK-MEL-28; 11.7 µM (inactive) with UACC-62.

With `C#CCCOC(=O)c1ccccc1OC(C)=O`, the GI50 with SF-268, in the assay on UACC-257, in the assay on MDA-MB-435, in the assay on RPMI-8226, in the assay with NCI-H460 and in the assay with OVCAR-3 was > 100 µM (inactive) each time. In addition, the GI50 with HCT-15 is over 100 µM; in the assay with SK-MEL-5, > 100 µM (inactive); in the assay with SK-OV-3 it was > 100 µM (inactive); in the assay with DU-145, > 100 µM (inactive); in the assay with CAKI-1, > 100 µM (inactive); with MCF7, > 100 µM (inactive). The GI50 with OVCAR-8, with NCI-H226, in the assay with SNB-75, with MDA-N and in the assay on UACC-62 was > 100 µM (inactive) each time.

In the case of `CNC(=O)CCC(NC(C)=O)C(=O)NC(Cc1ccc(NC(=O)CCCCC(C)=O)cc1)C(=O)NC(CCC(=O)NC)C(=O)NC` (configuration not stated), the GI50 in the assay on SF-268, in the assay on MDA-MB-435, with RPMI-8226, in the assay with NCI-H460, in the assay with OVCAR-3 and with HT-29 was > 100 µM (inactive) in each case. For the same compound, the GI50 in the assay on HCT-15 is over 100 µM; in the assay on SK-MEL-5 it was > 100 µM (inactive); with SK-OV-3 it was > 100 µM (inactive); with HL-60 it was > 100 µM (inactive); in the assay with DU-145 it was > 100 µM (inactive); with CAKI-1, > 100 µM (inactive). In addition, the GI50 in the assay with MCF7, in the assay with OVCAR-8, with NCI-H226, in the assay with MDA-N, with SK-MEL-28 and in the assay on UACC-62 was > 100 µM (inactive) in each case.

As for `O=C(O)c1nc2ccc(C(F)(F)F)cc2nc1NCc1ccc(Cl)c(Cl)c1`, the GI50 was 21.2 µM (inactive) with UACC-257; 15.6 µM (inactive) in the assay on MDA-MB-435; 27.7 µM (inactive) in the assay with RPMI-8226; 16 µM (inactive) in the assay with NCI-H460; 7.78 µM (inactive) in the assay on OVCAR-3; 15.2 µM (inactive) with HT-29. The GI50 in the assay on HCT-15 is 18 µM; with SK-MEL-5 it was 21.4 µM (inactive); in the assay with SK-OV-3, 19.4 µM (inactive); with DU-145, 17 µM (inactive); in the assay with CAKI-1 it was 19.2 µM (inactive); in the assay on MCF7, 17.8 µM (inactive). The GI50 is 16.3 µM (inactive) in the assay with OVCAR-8; 17.3 µM (inactive) with NCI-H226; 20.7 µM (inactive) in the assay with SNB-75; 19.6 µM (inactive) in the assay on MDA-N; 17.6 µM (inactive) with SK-MEL-28; 17.1 µM (inactive) with UACC-62.
